Experimental data reported in PubChem BioAssay AID1963979 (Molecular Pharmacology Branch, DTP, NCI, 2024).
Where “and” joins values, the source holds several entries; their conditions need not be identical. Equal values may be shown once.

System: 361931-004-R-J1-PDC multicell spheroid viability
Assay: Anticancer human tumor 361931-004-R-J1-PDC patient-derived colon adenocarcinoma cell line growth inhibition [PI3K]
Conditions: for viability, T/C: stronger effect = lower value
Procedure, shortened: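 Multi-cell spheroids combine tumor cells with HUVEC and human MSCs, treated with targeted agents alone or with inavolisib, alpelisib, duvelisib or copanlisib. Concentrations fall in half-log steps from at or near clinical Cmax, or from 10 microM where Cmax is unknown; viability read-out.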

[1] = curve of first compound, second compound 0.00316 µM
[2] = curve of first compound, second compound 0.01 µM
[3] = curve of first compound, second compound 0.0316 µM
[4] = curve of first compound, second compound 0.1 µM
[5] = curve of first compound, second compound 0.316 µM
[6] = curve of first compound, second compound 1 µM
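Further: spheroids exposed to agents for seven days before readout.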

Cn1cnc2c(F)c(Nc3ccc(Br)cc3Cl)c(C(=O)NOCCO)cc21 + CC(Nc1ccc2c(c1)OCCn1cc(N3C(=O)OCC3C(F)F)nc1-2)C(N)=O
IC50 [1]: 2590 nM
IC50 [2]: > 3000 nM
IC50 [3]: 2110 nM
IC50 [4]: 1140 nM
IC50 [5]: 556 nM
IC50 [6]: 158 nM
viability, T/C (second compound 0.00316 µM, first compound 0.00949 µM): 91.9%
viability, T/C (second compound 0.00316 µM, first compound 0.03 µM): 94.6%
viability, T/C (second compound 0.00316 µM, first compound 0.0949 µM): 80.4%
viability, T/C (second compound 0.00316 µM, first compound 0.3 µM): 80.1%
viability, T/C (second compound 0.00316 µM, first compound 0.949 µM): 75%
viability, T/C (second compound 0.00316 µM, first compound 3 µM): 45.5%
viability, T/C (second compound 0.01 µM, first compound 0.00949 µM): 99.4%
viability, T/C (second compound 0.01 µM, first compound 0.03 µM): 92.8%
viability, T/C (second compound 0.01 µM, first compound 0.0949 µM): 81.1%
viability, T/C (second compound 0.01 µM, first compound 0.3 µM): 72.4%
viability, T/C (second compound 0.01 µM, first compound 0.949 µM): 63.8%
viability, T/C (second compound 0.01 µM, first compound 3 µM): 51.9%
viability, T/C (second compound 0.0316 µM, first compound 0.00949 µM): 96.2%
viability, T/C (second compound 0.0316 µM, first compound 0.03 µM): 92.9%
viability, T/C (second compound 0.0316 µM, first compound 0.0949 µM): 83.8%
viability, T/C (second compound 0.0316 µM, first compound 0.3 µM): 70.4%
viability, T/C (second compound 0.0316 µM, first compound 0.949 µM): 62%
viability, T/C (second compound 0.0316 µM, first compound 3 µM): 45%
viability, T/C (second compound 0.1 µM, first compound 0.00949 µM): 90.8%
viability, T/C (second compound 0.1 µM, first compound 0.03 µM): 83.3%
viability, T/C (second compound 0.1 µM, first compound 0.0949 µM): 76.1%
viability, T/C (second compound 0.1 µM, first compound 0.3 µM): 73.2%
viability, T/C (second compound 0.1 µM, first compound 0.949 µM): 53.8%
viability, T/C (second compound 0.1 µM, first compound 3 µM): 28.5%
viability, T/C (second compound 0.316 µM, first compound 0.00949 µM): 86%
viability, T/C (second compound 0.316 µM, first compound 0.03 µM): 82.8%
viability, T/C (second compound 0.316 µM, first compound 0.0949 µM): 63.9%
viability, T/C (second compound 0.316 µM, first compound 0.3 µM): 62.4%
viability, T/C (second compound 0.316 µM, first compound 0.949 µM): 43.8%
viability, T/C (second compound 0.316 µM, first compound 3 µM): 14.7%
viability, T/C (second compound 1 µM, first compound 0.00949 µM): 72.8%
viability, T/C (second compound 1 µM, first compound 0.03 µM): 57.3%
viability, T/C (second compound 1 µM, first compound 0.0949 µM): 57.1%
viability, T/C (second compound 1 µM, first compound 0.3 µM): 46.4%
viability, T/C (second compound 1 µM, first compound 0.949 µM): 26.2%
viability, T/C (second compound 1 µM, first compound 3 µM): 8.6%

Cn1nccc1Nc1nccc(-c2ccn(C(CO)c3ccc(Cl)c(F)c3)c(=O)c2)n1 (stereo unspecified)
viability, T/C (compound 0.0316 µM): 106% [middle of 4 runs]
viability, T/C (compound 0.1 µM): 92.5% [middle of 4 runs]
viability, T/C (compound 0.316 µM): 97% [middle of 4 runs]
viability, T/C (compound 1 µM): 95.2% [middle of 4 runs]
viability, T/C (compound 3.16 µM): 78.3% [middle of 4 runs]
viability, T/C (compound 10 µM): 61.8% [middle of 4 runs]
IC50 (curve of compound): > 10000 nM and 9470 nM

C#Cc1c(F)ccc2cc(O)cc(-c3ncc4c(N5CC6CCC(C5)N6)nc(OCC56CCCN5CC(F)C6)nc4c3F)c12 (stereo unspecified) + CC(Nc1ccc2c(c1)OCCn1cc(N3C(=O)OCC3C(F)F)nc1-2)C(N)=O
IC50 [1]: > 10000 nM
IC50 [2]: > 10000 nM
IC50 [3]: > 10000 nM
IC50 [4]: > 10000 nM
IC50 [5]: > 10000 nM
IC50 [6]: 1760 nM
viability, T/C (second compound 0.00316 µM, first compound 0.0316 µM): 99.7%
viability, T/C (second compound 0.00316 µM, first compound 0.1 µM): 108%
viability, T/C (second compound 0.00316 µM, first compound 0.316 µM): 93.5%
viability, T/C (second compound 0.00316 µM, first compound 1 µM): 100%
viability, T/C (second compound 0.00316 µM, first compound 3.16 µM): 89.6%
viability, T/C (second compound 0.00316 µM, first compound 10 µM): 62.3%
viability, T/C (second compound 0.01 µM, first compound 0.0316 µM): 101%
viability, T/C (second compound 0.01 µM, first compound 0.1 µM): 104%
viability, T/C (second compound 0.01 µM, first compound 0.316 µM): 81%
viability, T/C (second compound 0.01 µM, first compound 1 µM): 92.1%
viability, T/C (second compound 0.01 µM, first compound 3.16 µM): 75.3%
viability, T/C (second compound 0.01 µM, first compound 10 µM): 71.3%
viability, T/C (second compound 0.0316 µM, first compound 0.0316 µM): 101%
viability, T/C (second compound 0.0316 µM, first compound 0.1 µM): 100%
viability, T/C (second compound 0.0316 µM, first compound 0.316 µM): 106%
viability, T/C (second compound 0.0316 µM, first compound 1 µM): 81.3%
viability, T/C (second compound 0.0316 µM, first compound 3.16 µM): 84.3%
viability, T/C (second compound 0.0316 µM, first compound 10 µM): 55.9%
viability, T/C (second compound 0.1 µM, first compound 0.0316 µM): 93.8%
viability, T/C (second compound 0.1 µM, first compound 0.1 µM): 94.2%
viability, T/C (second compound 0.1 µM, first compound 0.316 µM): 76%
viability, T/C (second compound 0.1 µM, first compound 1 µM): 75%
viability, T/C (second compound 0.1 µM, first compound 3.16 µM): 68.5%
viability, T/C (second compound 0.1 µM, first compound 10 µM): 53.4%
viability, T/C (second compound 0.316 µM, first compound 0.0316 µM): 86.6%
viability, T/C (second compound 0.316 µM, first compound 0.1 µM): 86%
viability, T/C (second compound 0.316 µM, first compound 0.316 µM): 68.2%
viability, T/C (second compound 0.316 µM, first compound 1 µM): 55.2%
viability, T/C (second compound 0.316 µM, first compound 3.16 µM): 57.1%
viability, T/C (second compound 0.316 µM, first compound 10 µM): 50%
viability, T/C (second compound 1 µM, first compound 0.0316 µM): 78.7%
viability, T/C (second compound 1 µM, first compound 0.1 µM): 71.2%
viability, T/C (second compound 1 µM, first compound 0.316 µM): 64.6%
viability, T/C (second compound 1 µM, first compound 1 µM): 53.4%
viability, T/C (second compound 1 µM, first compound 3.16 µM): 46.2%
viability, T/C (second compound 1 µM, first compound 10 µM): 35.1%
